Results published in ChEMBL document CHEMBL5727697, “TYK2 inhibitors and uses thereof” (2020).

Target: Non-receptor tyrosine-protein kinase TYK2 (Homo sapiens, UniProt P29597)
Test: Binding Assay: Binding constants for compounds of the present invention against the JH2 domain were determined by the following protocol for a KINOMEscan® assay (DiscoveRx). A fusion protein of a partial length construct of human TYK2 (JH2domain-pseudokinase) (amino acids G556 to D888 based on reference sequence NP_003322.3) and the DNA binding domain of NFkB was expressed in transiently transfected HEK293 cells. From these HEK 293 cells, extracts were prepared in M-PER extraction buffer (Pierce) in the presence of Protease Inhibitor Cocktail Complete (Roche) and Phosphatase Inhibitor Cocktail Set II (Merck) per manufacturers' instructions. The TYK2 (JH2domain-pseudokinase) fusion protein was labeled with a chimeric double-stranded DNA tag containing the NFkB binding site (5′-GGGAATTCCC-3′) fused to an amplicon for qPCR readout, which was added directly to the expression extract (the final concentration of DNA-tag in the binding reaction is 0.1 nM).
Type: cell-based

Chain of Non-receptor tyrosine-protein kinase TYK2 (P29597 whole entry, the tested form may be a part): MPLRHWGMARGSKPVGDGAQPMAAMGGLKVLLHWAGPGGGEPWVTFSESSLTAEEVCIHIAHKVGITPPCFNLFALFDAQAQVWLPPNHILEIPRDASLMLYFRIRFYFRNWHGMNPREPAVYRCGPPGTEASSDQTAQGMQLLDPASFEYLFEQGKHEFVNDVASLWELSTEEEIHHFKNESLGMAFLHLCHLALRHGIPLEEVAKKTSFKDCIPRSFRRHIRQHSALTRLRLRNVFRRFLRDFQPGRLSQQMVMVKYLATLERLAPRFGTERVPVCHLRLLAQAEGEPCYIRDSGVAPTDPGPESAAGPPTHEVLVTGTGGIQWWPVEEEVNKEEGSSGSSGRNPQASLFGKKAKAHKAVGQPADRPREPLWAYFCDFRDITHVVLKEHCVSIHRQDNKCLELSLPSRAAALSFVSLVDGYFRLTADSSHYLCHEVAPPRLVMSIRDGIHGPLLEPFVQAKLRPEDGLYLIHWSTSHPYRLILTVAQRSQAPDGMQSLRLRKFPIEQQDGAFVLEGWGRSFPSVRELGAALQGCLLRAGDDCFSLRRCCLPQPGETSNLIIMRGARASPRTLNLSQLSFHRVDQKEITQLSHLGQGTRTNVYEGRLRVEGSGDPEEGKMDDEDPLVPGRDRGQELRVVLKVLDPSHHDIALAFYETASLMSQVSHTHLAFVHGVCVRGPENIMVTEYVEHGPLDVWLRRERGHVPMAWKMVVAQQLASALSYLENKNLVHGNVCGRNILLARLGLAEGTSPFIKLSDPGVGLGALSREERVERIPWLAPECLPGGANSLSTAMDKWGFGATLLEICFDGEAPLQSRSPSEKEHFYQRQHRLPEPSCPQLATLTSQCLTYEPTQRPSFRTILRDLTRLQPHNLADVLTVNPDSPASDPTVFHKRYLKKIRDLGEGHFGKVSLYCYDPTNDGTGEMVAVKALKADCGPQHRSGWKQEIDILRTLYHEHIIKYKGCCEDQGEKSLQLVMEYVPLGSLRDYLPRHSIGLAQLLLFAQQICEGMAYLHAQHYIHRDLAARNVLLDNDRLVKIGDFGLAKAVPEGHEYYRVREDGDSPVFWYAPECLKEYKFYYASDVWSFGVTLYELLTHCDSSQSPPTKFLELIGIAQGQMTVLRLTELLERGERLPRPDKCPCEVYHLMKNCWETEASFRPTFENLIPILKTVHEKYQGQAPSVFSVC

Kd [nM]	SMILES
< 0.1	COCCNc1ccc(Nc2cc(Nc3ccccc3N(C)S(C)(=O)=O)c3nc(C)[nH]c3n2)nc1C#N
> 10	COc1c(Nc2cc(Nc3ccc(C(C)(C)OC)c(C#N)n3)nc3[nH]c(C)nc23)cccc1-c1nnn(C)n1
< 0.1	CN(c1cc(-c2cncn2C)ccc1Nc1cc(NC(=O)[C@@H]2C[C@@H]2F)nc2[nH]c(C(F)F)nc12)S(C)(=O)=O
< 0.1	Cc1c(-c2ccc(Nc3cc(NC(=O)C4CC4)nc4[nH]c(C(F)F)nc34)c(S(C)(=O)=O)c2)cnn1C

Further lines, the compound ahead of its results:

SMILES	Kd [nM]
Cc1nc2c(Nc3ccc(-c4cnn(C)c4C)cc3S(C)(=O)=O)cc(Nc3cccc(C#N)n3)nc2[nH]1	< 0.1
COc1ccccc1Nc1cc(Nc2ccc(N3CCC4(CCOCC4)CC3)cn2)nc2[nH]c(C)nc12	> 10
Cn1cncc1-c1ccc(Nc2cc(NC(=O)[C@@H]3C[C@@H]3F)nc3[nH]c(C(F)F)nc23)c(S(C)(=O)=O)c1	< 0.1
